Data reported in ChEMBL document CHEMBL3885881, “DrugMatrix”.

Organism: Rattus norvegicus
Assay: DrugMatrix - Regimen: Daily Repeat
Format: toxicity, organism-based, Sprague-Dawley
Parameters: regimen Daily Repeat, gender Male, age 6-8 weeks
Details: in vivo, po, route oral GAVAGE, vehicle .5 % CMC; for BASOPHIL / EOSINOPHIL / ERYTHROCYTE COUNT / HEMATOCRIT / HEMOGLOBIN / LEUKOCYTE COUNT / LYMPHOCYTE / MEAN CORPUSCULAR HEMOGLOBIN / MEAN CORPUSCULAR HEMOGLOBIN CONCENTRATION / MEAN CORPUSCULAR VOLUME / MONOCYTE / NEUTROPHIL / PLATELET COUNT: tissue Blood; for ALANINE AMINOTRANSFERASE / ALBUMIN / ALKALINE PHOSPHATASE / ASPARTATE AMINOTRANSFERASE / BLOOD UREA NITROGEN / CHLORIDE / CHOLESTEROL / CREATINE PHOSPHOKINASE / CREATININE / GLUCOSE / PHOSPHORUS / POTASSIUM / SODIUM / TOTAL BILIRUBIN / TOTAL PROTEIN: tissue Plasma
[1] = 40 mg/kg, 72 h, dose level Low, time 3 day
[2] = 40 mg/kg, 120 h, dose level Low, time 5 day
[3] = 99 mg/kg, 72 h, dose level High, time 3 day
[4] = 99 mg/kg, 120 h, dose level High, time 5 day

In the case of `CO[C@H]1/C=C/O[C@@]2(C)Oc3c(C)c(O)c4c(O)c(c(/C=N/N5CCN(C)CC5)c(O)c4c3C2=O)NC(=O)/C(C)=C\C=C\[C@H](C)[C@H](O)[C@@H](C)[C@@H](O)[C@@H](C)[C@H](OC(C)=O)[C@@H]1C` [RIFAMPIN], the BASOPHIL [1] is reported as 0%, the EOSINOPHIL [1] is reported as 0% and the “ERYTHROCYTE COUNT” value [1] is reported as 6.01 x10E6/uL. For the same molecule, the HEMATOCRIT [1] was 36.73%, the HEMOGLOBIN [1] was 14.33 G/DL and the “LEUKOCYTE COUNT” value [1] was 9.07 x10E3/uL. For the same molecule, the LYMPHOCYTE [1] was 88%, the “MEAN CORPUSCULAR HEMOGLOBIN” value [1] was 23.83 pg and the “MEAN CORPUSCULAR HEMOGLOBIN CONCENTRATION” value [1] was 39.03 G/DL. For the same molecule, the “MEAN CORPUSCULAR VOLUME” value [1] was 61.1 fL, the MONOCYTE [1] was 2.33% and the NEUTROPHIL [1] was 9.67%. The “PLATELET COUNT” value [1] was 1111.33 x10E3/uL, the “ALANINE AMINOTRANSFERASE” value [1] was 36 u/L and the ALBUMIN [1] was 3.6 G/DL. The “ALKALINE PHOSPHATASE” value [1] was 274 u/L, the “ASPARTATE AMINOTRANSFERASE” value [1] was 60 u/L and the “BLOOD UREA NITROGEN” value [1] was 9 mg/dL. The CHLORIDE [1] was 108 MEQ/L, the CHOLESTEROL [1] was 63.33 mg/dL and the “CREATINE PHOSPHOKINASE” value [1] was 115.33 u/L. The CREATININE [1] was 0.43 mg/dL, the GLUCOSE [1] was 170.33 mg/dL and the PHOSPHORUS [1] was 11.3 mg/dL. The POTASSIUM [1] was 6.6 MEQ/L, the SODIUM [1] was 152.67 MEQ/L and the “TOTAL BILIRUBIN” value [1] was 0.33 mg/dL. For the same molecule, the “TOTAL PROTEIN” value [1] was 5.73 G/DL, the BASOPHIL [2] was 0% and the EOSINOPHIL [2] was 0%. For the same molecule, the “ERYTHROCYTE COUNT” value [2] was 6.22 x10E6/uL, the HEMATOCRIT [2] was 36.5% and the HEMOGLOBIN [2] was 14.57 G/DL. For the same molecule, the “LEUKOCYTE COUNT” value [2] was 14.23 x10E3/uL, the LYMPHOCYTE [2] was 89.33% and the “MEAN CORPUSCULAR HEMOGLOBIN” value [2] was 23.47 pg. The “MEAN CORPUSCULAR HEMOGLOBIN CONCENTRATION” value [2] was 39.93 G/DL, the “MEAN CORPUSCULAR VOLUME” value [2] was 58.8 fL and the MONOCYTE [2] was 2.67%. The NEUTROPHIL [2] was 8%, the “PLATELET COUNT” value [2] was 1082.67 x10E3/uL and the “ALANINE AMINOTRANSFERASE” value [2] was 42.33 u/L. The ALBUMIN [2] was 3.7 G/DL, the “ALKALINE PHOSPHATASE” value [2] was 325 u/L and the “ASPARTATE AMINOTRANSFERASE” value [2] was 62.67 u/L. The “BLOOD UREA NITROGEN” value [2] was 13.67 mg/dL, the CHLORIDE [2] was 107.33 MEQ/L and the CHOLESTEROL [2] was 78.33 mg/dL. For the same molecule, the “CREATINE PHOSPHOKINASE” value [2] was 142 u/L, the CREATININE [2] was 0.57 mg/dL and the GLUCOSE [2] was 180.33 mg/dL. The PHOSPHORUS [2] was 10.97 mg/dL, the POTASSIUM [2] was 6.63 MEQ/L and the SODIUM [2] was 150.33 MEQ/L. For the same molecule, the “TOTAL BILIRUBIN” value [2] was 0.3 mg/dL, the “TOTAL PROTEIN” value [2] was 6.03 G/DL and the BASOPHIL [3] was 0%. The EOSINOPHIL [3] was 0.33%, the “ERYTHROCYTE COUNT” value [3] was 5.7 x10E6/uL and the HEMATOCRIT [3] was 35.03%. The HEMOGLOBIN [3] was 13.93 G/DL, the “LEUKOCYTE COUNT” value [3] was 12.7 x10E3/uL and the LYMPHOCYTE [3] was 89%. The “MEAN CORPUSCULAR HEMOGLOBIN” value [3] was 24.47 pg, the “MEAN CORPUSCULAR HEMOGLOBIN CONCENTRATION” value [3] was 39.77 G/DL and the “MEAN CORPUSCULAR VOLUME” value [3] was 61.5 fL. The MONOCYTE [3] was 2%, the NEUTROPHIL [3] was 8.67% and the “PLATELET COUNT” value [3] was 1047.33 x10E3/uL. The “ALANINE AMINOTRANSFERASE” value [3] was 41 u/L, the ALBUMIN [3] was 3.8 G/DL and the “ALKALINE PHOSPHATASE” value [3] was 360.33 u/L. The “ASPARTATE AMINOTRANSFERASE” value [3] was 60 u/L, the “BLOOD UREA NITROGEN” value [3] was 10.67 mg/dL and the CHLORIDE [3] was 106.67 MEQ/L. For the same molecule, the CHOLESTEROL [3] was 93.67 mg/dL, the “CREATINE PHOSPHOKINASE” value [3] was 139 u/L and the CREATININE [3] was 0.43 mg/dL. It also gave a GLUCOSE [3] of 166.33 mg/dL, a PHOSPHORUS [3] of 11.6 mg/dL and a POTASSIUM [3] of 6.4 MEQ/L. The SODIUM [3] was 153 MEQ/L, the “TOTAL BILIRUBIN” value [3] was 0.3 mg/dL and the “TOTAL PROTEIN” value [3] was 6.1 G/DL. The BASOPHIL [4] was 0%, the EOSINOPHIL [4] was 0.33% and the “ERYTHROCYTE COUNT” value [4] was 5.79 x10E6/uL. The HEMATOCRIT [4] was 34.87%, the HEMOGLOBIN [4] was 13.73 G/DL and the “LEUKOCYTE COUNT” value [4] was 17.13 x10E3/uL. For the same molecule, the LYMPHOCYTE [4] was 85%, the “MEAN CORPUSCULAR HEMOGLOBIN” value [4] was 23.73 pg and the “MEAN CORPUSCULAR HEMOGLOBIN CONCENTRATION” value [4] was 39.4 G/DL. The “MEAN CORPUSCULAR VOLUME” value [4] was 60.23 fL, the MONOCYTE [4] was 2% and the NEUTROPHIL [4] was 12.67%. For the same molecule, the “PLATELET COUNT” value [4] was 1010.67 x10E3/uL, the “ALANINE AMINOTRANSFERASE” value [4] was 46 u/L and the ALBUMIN [4] was 3.6 G/DL. For the same molecule, the “ALKALINE PHOSPHATASE” value [4] was 384.33 u/L, the “ASPARTATE AMINOTRANSFERASE” value [4] was 64.33 u/L and the “BLOOD UREA NITROGEN” value [4] was 11.33 mg/dL. For the same molecule, the CHLORIDE [4] was 108.33 MEQ/L, the CHOLESTEROL [4] was 75 mg/dL and the “CREATINE PHOSPHOKINASE” value [4] was 143 u/L. For the same molecule, the CREATININE [4] was 0.5 mg/dL, the GLUCOSE [4] was 177.67 mg/dL and the PHOSPHORUS [4] was 11.1 mg/dL. The POTASSIUM [4] was 6.3 MEQ/L, the SODIUM [4] was 149.33 MEQ/L and the “TOTAL BILIRUBIN” value [4] was 0.37 mg/dL. The “TOTAL PROTEIN” value [4] was 5.67 G/DL.
